Assay results as given in patent US10238638B2, “Benzothiazole and benzothiophene compounds” (Bristol-Myers Squibb Company, priority 2015, dated 2019).

What follows are molecules tested against PAR4 (Homo sapiens (Human), UniProt Q96RI0) (assay: FLIPR assay in PAR4-expressing HEK293 cells (calcium mobilization)). Conditions: H-Ala-Phe(4-F)-Pro-Gly-Trp-Leu-Val-Lys-Asn-Gly-NH2-induced calcium mobilization, PAR4 antagonist activity.
Format: cell-based
Excerpt: The FLIPR assay is an exemplary in vitro assay for measuring the activity of the PAR4 antagonists of the present invention. In this assay, intracellular calcium mobilization is induced in PAR4 expressing cells by a PAR4 agonist and calcium mobilization is monitored.
HEK293 cells stably expressing PAR4 were generated by a standard method of transfection of human PAR4 (F2R23) cDNA expression vector and selected based on PAR4 protein expression or mRNA expression. […] Therefore, the same cells were also used to determine selectivity against PAR1 and agonist activity for both receptors.
FLIPR-based calcium mobilization assay in HEK293 cells was used to measure PAR4 antagonism, agonism, and selectivity against PAR1. […] Counter screens for agonist activity and PAR1 antagonist activity were also performed. Briefly, PAR1/PAR4-expressing HEK293 cells were grown in DMEM (Life Technology, Grand Island, N.Y.) containing 10% heat-inactivated FBS, 1% Penicillin-Streptomycin, 10 μg/mL blasticidin, and 100 μg/mL Zeocin at 37° C. with 5% CO2. Cells were plated overnight prior to the experiment in a black 384-well Purecoat Amine clear bottom plate (Becton Dickinson Biosciences, San Jose, Calif.) at 10,000 cells/well in 30 μL growth medium and incubated in a humidified chamber at 37° C. with 5% CO2 overnight. Prior to compound addition, the cell medium was replaced with 40 μL of 1× calcium and magnesium-containing Hank's Balanced Saline Solution (HBSS) (with 20 mM HEPES) and 1:1000 diluted fluorescent calcium indicator (Codex Biosolutions, Gaithersburg, Md.). After a 30 minute incubation period at 37° C. and a further 30 minute incubation and equilibration period at room temperature, 20 μL test compound (diluted in 1×HBSS buffer) was added at various concentrations at 0.17% dimethyl sulfoxide (DMSO) final concentration. Changes in fluorescence intensity were measured using a Functional Drug Screening System (FDSS, Hamamatsu, Japan) to determine agonist activities. The cells were then incubated for 30 minutes at room temperature followed by addition of 20 μL of agonist peptide for antagonist activity measurement. […] Compound potency was derived from 11-point concentration-response curves.

Chain of PAR4 (Q96RI0 18-385): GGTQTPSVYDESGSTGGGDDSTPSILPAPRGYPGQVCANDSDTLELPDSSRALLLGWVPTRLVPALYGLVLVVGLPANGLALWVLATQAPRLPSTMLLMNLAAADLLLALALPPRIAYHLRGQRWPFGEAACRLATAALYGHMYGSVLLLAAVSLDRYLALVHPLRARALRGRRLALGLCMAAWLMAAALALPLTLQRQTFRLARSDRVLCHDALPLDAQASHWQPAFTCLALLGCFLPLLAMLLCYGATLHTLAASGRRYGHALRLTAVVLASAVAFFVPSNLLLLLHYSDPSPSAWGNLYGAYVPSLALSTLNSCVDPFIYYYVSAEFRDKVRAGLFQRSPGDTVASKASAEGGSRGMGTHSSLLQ

First: COc1cc(OCc2csc(-c3ccc(C(=O)N(C)CC#N)cc3)n2)c2sc(-c3cn4nc(C)sc4n3)nc2c1 [Example 5, N—(Cyanomethyl)-4-(4-(((5-methoxy-2-(2-methylimidazo[2,1-b][1,3,4]thiadiazol-6-yl)benzo[d]thiazol-7-yl)oxy)methyl)thiazol-2-yl)-N-methylbenzamide]
Second: COc1cc(OCc2csc(-c3ccc(C(=O)N(C)CC#N)cc3)n2)c2sc(-c3cn4nc(C(C)(F)F)sc4n3)nc2c1 [Example 17, N—(Cyanomethyl)-4-(4-(((2-(2-(1,1-difluoroethyl)imidazo[2,1-b][1,3,4]thiadiazol-6-yl)-5-methoxybenzo[d]thiazol-7-yl)oxy)methyl)thiazol-2-yl)-N-methylbenzamide]
The IC50 of the first is 2.4-fold lower: 1100 nM for the first, 2600 nM for the second. The first is the more potent here.

Going from `COc1cc(OCc2csc(-c3ccc(C(=O)N4CC[C@@H](CO)C4)cc3)n2)c2sc(-c3cn4nc(C(C)(F)F)sc4n3)nc2c1` [Example 20, (R)-(4-(4-(((2-(2-(1,1-Difluoroethyl)imidazo[2,1-b][1,3,4]thiadiazol-6-yl)-5-methoxybenzo[d]thiazol-7-yl)oxy)methyl)thiazol-2-yl)phenyl)(3-(hydroxymethyl)pyrrolidin-1-yl)methanone] to `COc1cc(OCc2csc(-c3ccc(C(=O)N4CC[C@@H](CO)C4)cc3)n2)c2sc(-c3cn4nc(C)sc4n3)nc2c1` [Example 8], the IC50 rises from 1200 nM to 1800 nM (1.5-fold). The first is the more potent here.

`COc1cc(OCc2nc(-c3ccc(C(=O)N(C)[C@H]4CCOC4)cc3)sc2C)c2sc(-c3cn4nc(C)sc4n3)nc2c1` [Example 39, (S)-4-(4-(((5-Methoxy-2-(2-methylimidazo[2,1-b][1,3,4]thiadiazol-6-yl)benzo[d]thiazol-7-yl)oxy)methyl)-5-methylthiazol-2-yl)-N-methyl-N-(tetrahydrofuran-3-yl)benzamide] and `COc1cc(OCc2nc(-c3ccc(C(=O)N(C)C)cc3)sc2C)c2sc(-c3cn4nc(C)sc4n3)nc2c1` [Example 41, 4-(4-(((5-Methoxy-2-(2-methylimidazo[2,1-b][1,3,4]thiadiazol-6-yl)benzo[d]thiazol-7-yl)oxy)methyl)-5-methylthiazol-2-yl)-N,N-dimethylbenzamide] are within 1.5-fold of each other in IC50: 1800 nM for the first, 1700 nM for the second.

Compared with `COc1cc(OCc2csc(-c3ccc(C(=O)N4CCC[C@H](O)C4)cc3)n2)c2sc(-c3cn4nc(C5CC5)sc4n3)nc2c1` [Example 26, (S)-(4-(4-(((2-(2-Cyclopropylimidazo[2,1-b][1,3,4]thiadiazol-6-yl)-5-methoxybenzo[d]thiazol-7-yl)oxy)methyl)thiazol-2-yl)phenyl)(3-hydroxypiperidin-1-yl)methanone], `CCc1nn2cc(-c3nc4cc(OC)cc(OCc5csc(-c6ccc(C(=O)N7CCC[C@H](O)C7)cc6)n5)c4s3)nc2s1` [Example 33, (S)-(4-(4-(((2-(2-Ethylimidazo[2,1-b][1,3,4]thiadiazol-6-yl)-5-methoxybenzo[d]thiazol-7-yl)oxy)methyl)thiazol-2-yl)phenyl)(3-hydroxypiperidin-1-yl)methanone] is 2.5-fold lower in IC50: 9100 nM for the first, 3600 nM for the second.

Compared with `COc1cc(OCc2csc(-c3ccc(C(=O)N(CCO)C(C)(C)C)cc3)n2)c2sc(-c3cn4nc(C(C)(F)F)sc4n3)nc2c1` [Example 19, N-(tert-Butyl)-4-(4-(((2-(2-(1,1-difluoroethyl)imidazo[2,1-b][1,3,4]thiadiazol-6-yl)-5-methoxybenzo[d]thiazol-7-yl)oxy)methyl)thiazol-2-yl)-N-(2-hydroxyethyl)benzamide], `COc1cc(OCc2csc(-c3ccc(C(=O)N(CCO)C(C)(C)C)cc3)n2)c2sc(-c3cn4nc(C)sc4n3)nc2c1` [Example 7] is 2.7-fold lower in IC50: 81000 nM for the first, 30000 nM for the second. The second is the more potent here.

`COc1cc(OCc2nc(-c3ccc(C(=O)N4CCC(CCO)CC4)cc3)sc2C)c2sc(-c3cn4nc(C)sc4n3)nc2c1` [Example 42, (4-(2-Hydroxyethyl)piperidin-1-yl)(4-(4-(((5-methoxy-2-(2-methylimidazo[2,1-b][1,3,4]thiadiazol-6-yl)benzo[d]thiazol-7-yl)oxy)methyl)-5-methylthiazol-2-yl)phenyl)methanone] and `COc1cc(OCc2nc(-c3ccc(C(=O)N4CCC[C@H](O)C4)cc3)sc2C)c2sc(-c3cn4nc(C)sc4n3)nc2c1` [Example 38, (S)-(3-Hydroxypiperidin-1-yl)(4-(4-(((5-methoxy-2-(2-methylimidazo[2,1-b][1,3,4]thiadiazol-6-yl)benzo[d]thiazol-7-yl)oxy)methyl)-5-methylthiazol-2-yl)phenyl)methanone] are within 1.5-fold of each other in IC50: 1100 nM for the first, 1600 nM for the second.

`CCc1nn2cc(-c3nc4cc(OC)cc(OCc5csc(-c6ccc(C(=O)NCC(C)(C)CO)cc6)n5)c4s3)nc2s1` [Example 32, 4-(4-(((2-(2-Ethylimidazo[2,1-b][1,3,4]thiadiazol-6-yl)-5-methoxybenzo[d]thiazol-7-yl)oxy)methyl)thiazol-2-yl)-N-(3-hydroxy-2,2-dimethylpropyl)benzamide] and `CCc1nn2cc(-c3nc4cc(OC)cc(OCc5csc(-c6ccc(C(=O)OC(C)(C)C)cc6)n5)c4s3)nc2s1` [Example 31, tert-Butyl 4-(4-(((2-(2-ethylimidazo[2,1-b][1,3,4]thiadiazol-6-yl)-5-methoxybenzo[d]thiazol-7-yl)oxy)methyl)thiazol-2-yl)benzoate] are within 1.5-fold of each other in IC50: 1400 nM for the first, 2000 nM for the second.

Going from `COc1cc(OCc2csc(-c3ccc(C(=O)OC(C)(C)C)cc3)n2)c2sc(-c3cn4nc(C)sc4n3)nc2c1` [Example 1, tert-Butyl 4-(4-(((5-methoxy-2-(2-methylimidazo[2,1-b][1,3,4]thiadiazol-6-yl)benzo[d]thiazol-7-yl)oxy)methyl)thiazol-2-yl)benzoate] to `COc1cc(OCc2csc(-c3ccc(C(=O)N4CCC(C)(CO)CC4)cc3)n2)c2sc(-c3cn4nc(C)sc4n3)nc2c1` [Example 67], the IC50 falls from 2400 nM to 930 nM (2.6-fold). The second is the more potent here.

Going from `COc1cc(OCc2csc(-c3ccc(C(=O)N4CCOC[C@H]4CO)cc3)n2)c2sc(-c3cn4nc(C(C)(F)F)sc4n3)nc2c1` [Example 21, (R)-(4-(4-(((2-(2-(1,1-Difluoroethyl)imidazo[2,1-b][1,3,4]thiadiazol-6-yl)-5-methoxybenzo[d]thiazol-7-yl)oxy)methyl)thiazol-2-yl)phenyl)(3-(hydroxymethyl)morpholino)methanone] to `COc1cc(OCc2csc(-c3ccc(C(=O)N4CCC[C@H](O)C4)cc3)n2)c2sc(-c3cn4nc(C(C)(F)F)sc4n3)nc2c1` [Example 16, (S)-(4-(4-(((2-(2-(1,1-Difluoroethyl)imidazo[2,1-b][1,3,4]thiadiazol-6-yl)-5-methoxybenzo[d]thiazol-7-yl)oxy)methyl)thiazol-2-yl)phenyl)(3-hydroxypiperidin-1-yl)methanone], the IC50 rises from 920 nM to 15000 nM (16-fold).

Compared with `COc1cc(OCc2csc(N3CCOCC3)n2)c2sc(-c3cn4nc(C)ccc4n3)nc2c1` [Example 46, 4-(4-(((5-Methoxy-2-(6-methylimidazo[1,2-b]pyridazin-2-yl)benzo[d]thiazol-7-yl)oxy)methyl)thiazol-2-yl)morpholine], `COc1cc(OCc2csc(-c3ccc(C(=O)N(C)[C@H]4CCOC4)cc3)n2)c2sc(-c3cn4nc(C)ccc4n3)nc2c1` [Example 47, (S)-4-(4-(((5-Methoxy-2-(6-methylimidazo[1,2-b]pyridazin-2-yl)benzo[d]thiazol-7-yl)oxy)methyl)thiazol-2-yl)-N-methyl-N-(tetrahydrofuran-3-yl)benzamide] is 2.6-fold higher in IC50: 2500 nM for the first, 6400 nM for the second.

First: CCc1nn2cc(-c3nc4cc(OC)cc(OCc5csc(-c6ccc(C(=O)N7CCC(CCO)CC7)cc6)n5)c4s3)nc2s1 [Example 36, (4-(4-(((2-(2-Ethylimidazo[2,1-b][1,3,4]thiadiazol-6-yl)-5-methoxybenzo[d]thiazol-7-yl)oxy)methyl)thiazol-2-yl)phenyl)(4-(2-hydroxyethyl)piperidin-1-yl)methanone]
Second: COc1cc(OCc2csc(-c3ccc(C(=O)N4CCC[C@H](O)C4)cc3)n2)c2sc(-c3cn4nc(C)ccc4n3)nc2c1 [Example 48, (S)-(3-Hydroxypiperidin-1-yl)(4-(4-(((5-methoxy-2-(6-methylimidazo[1,2-b]pyridazin-2-yl)benzo[d]thiazol-7-yl)oxy)methyl)thiazol-2-yl)phenyl)methanone]
The IC50 of the first is 7.6-fold lower: 1300 nM for the first, 9900 nM for the second. The first is the more potent here.

First: COc1cc(OCc2csc(-c3ccc(C(=O)N(C)C)cc3)n2)c2sc(-c3cn4nc(C)ccc4n3)nc2c1 [Example 44, 4-(4-(((5-Methoxy-2-(6-methylimidazo[1,2-b]pyridazin-2-yl)benzo[d]thiazol-7-yl)oxy)methyl)thiazol-2-yl)-N,N-dimethylbenzamide]
Second: COc1cc(OCc2nc(-c3ccc(C(=O)NCC(C)(C)CO)cc3)sc2C)c2sc(-c3cn4nc(C)sc4n3)nc2c1 [Example 40, N-(3-Hydroxy-2,2-dimethylpropyl)-4-(4-(((5-methoxy-2-(2-methylimidazo[2,1-b][1,3,4]thiadiazol-6-yl)benzo[d]thiazol-7-yl)oxy)methyl)-5-methylthiazol-2-yl)benzamide]
The IC50 of the first is 1.6-fold higher: 2600 nM for the first, 1600 nM for the second.
